Here are results for 8 compounds from article PMC12540922, “Selective Antimicrobial and Cytotoxic Effects of Hop Compounds to Combat Poultry Antimicrobial Resistance” (MicrobiologyOpen, 2025).

Values after ≈ are worked out from the molar mass of the structure shown. “Also recorded” adds a separate entry of the source. Counter-ions that a name gives are not always drawn.

For one data set, the system named is M. luteus. On the set-up: method as in Seniya et al. [2012]. As to conditions: against M. luteus; ref Seniya et al. [2012]; cited from earlier work.
Data set [1] concerns Bacillus subtilis (DSM 23778). Description: Broth dilution assay, antibacterial activity. Format: cell-based. As to conditions: for MIC50: Bacillus subtilis, DSM23778, B. subtilis, concentration inhibiting 50% of growth rate, TSB medium, 28°C, 24 h, mean ± SD; for Selectivity index (SI), quotient of IC50 and MIC50: IC50 UMNSAH/DF-1 / MIC50 B. subtilis. Here is the method:
Bacillus subtilis (DSM 23778) was obtained from DSMZ (German Collection of Microorganisms and Cell Cultures GmbH). It was cultured on tryptic soy broth (TSB, DSMZ #545) agar plates or in TSB containing 17 g L^−1 peptone from casein, 3 g L^−1 peptone from soy, 2.5 g L^−1 D‐(+)‐glucose, 5 g L^−1 NaCl, and 2.5 g L^−1 K2HPO4 (Carl Roth, Karlsruhe, Germany) under aerobic conditions at 28°C.
(§1) Antibacterial activity of hop compounds against Gram‐positive M. luteus and B. subtilis was analyzed using Broth Dilution Assay. Twofold dilutions of hop compounds were prepared in NB or TSB medium, ranging from theoretical concentrations of 500 to 0.5 µg mL^−1 and transferred to 48‐well microtiter plates (Sarstedt, Nuembrecht, Germany). Gentamicin sulfate was used as a positive control. The optical density (OD) of a preculture prepared on the previous day was measured at 600 nm in a spectrophotometer (Implen, Muenchen, Germany). The inoculum was then diluted with NB or TSB medium to the desired OD600 nm of 0.1 and transferred to all wells (150 µL) except the sterile control, which consists only of medium. The ODs of the cultures were measured every hour at 750 nm using a plate reader (Tecan, Maennedorf, Switzerland) for 24 h. In the meantime, the plates were incubated at 37°C or 28°C without shaking. The chosen wavelength of 750 nm resulted from previous experiments with hop extracts to avoid an overlap of the absorption spectrum with chlorophyll (Guidi et al. [2017]). The growth rates were obtained from the exponential range of the generated growth curves. All values were normalized to the growth control (without hop compounds). MIC50 (minimum concentration of a substance that inhibits the growth of 50% of the bacteria tested) values were calculated by nonlinear regression using GraphPad Prism model “log(inhibitor) versus response,” where the basal response was subtracted and the bottom was set to a constant value (0). Means and standard deviations (SDs) were calculated from two biological duplicates, each consisting of three technical replicates.
In general terms: In broth dilution the organism is exposed to a series of concentrations in liquid medium.

For data set [2], the system named is Micrococcus luteus (DSM 1605). As to the kind of experiment: Broth dilution assay, antibacterial activity. Type of data set: cell-based. To be noted: for MIC50: Micrococcus luteus, DSM1605, M. luteus, concentration inhibiting 50% of growth rate, NB medium, 37°C, 24 h, mean ± SD. The method, then:
Micrococcus luteus (DSM 1605) was obtained from DSMZ (German Collection of Microorganisms and Cell Cultures GmbH). It was cultured on nutrient agar or in nutrient broth (NB, DSMZ #1) containing 5 g L^−1 peptone from casein (Carl Roth, Karlsruhe, Germany) and 3 g L^−1 meat extract (Carl Roth, Karlsruhe, Germany) under aerobic conditions at 37°C.
as §1

Data set [3] in a line: MTT based cell viability assay (cytotoxic activity). To be noted: chicken, UMNSAH/DF-1 chicken fibroblast cells, UMNSAH/DF-1, 48 h treatment, mean ± SD. The method, then: UMNSAH/DF‐1 cell line was purchased from Cytion (Eppelheim, Germany). The cells were maintained in Dulbecco's Modified Eagle Medium (DMEM, Sigma‐Aldrich, St. Louis, USA) containing 10% heat‐inactivated fetal bovine serum (FBS, Sigma‐Aldrich, St. Louis, USA) and cultured at 37°C and 5% CO2 in a humidified atmosphere. Cell lines were serially passaged after being detached with Accutase solution (Sigma‐Aldrich, St. Louis, USA).
The hop compounds were investigated for their cytotoxic effect on the chicken cell line UMNSAH/DF‐1, using the 3‐(4,5‐dimehtylthiazol‐2‐yl)‐2,5‐diphenyltetrazolium bromide (MTT) based cell viability assay. Cells were seeded in 96‐well microtiter plates (Sarstedt, Nümbrecht, Germany) with a cell density of 0.05 × 10^6 cells per mL and 100 µL per well and incubated for 24 h (37°C, 5% CO2). After that the medium was discarded and a dilution series of hop compounds in DMEM was added to the wells (100 µL), ranging from theoretical concentrations of 200 µg mL^−1 to 20 ng mL^−1. For vitality control, 20% dimethyl sulfoxide (DMSO) (TH Geyer, Renningen, Germany) was added, and for growth control, culture medium was added. The cytotoxic measurements were also performed with gentamicin sulfate as a control. Treated cells were further incubated for 48 h (37°C, 5% CO2). […] Means and SDs were calculated from two biological duplicates, each consisting of three technical replicates.

Data set [4] relates to human prostate (PC3) and colon (HT29) cancer cell lines. The arrangement: method as in Farag and Wessjohann [2013]. To be noted: ref Farag and Wessjohann [2013]; cited from earlier work.
Data set [5] in a line: Solubility of hop compounds in aqueous media (HPLC of supernatant). Format: physicochemical. As to conditions: 10% (v/v) ethanol; for Solubility in aqueous medium (in words): DMEM with/without 10% FBS, NB, TSB, theoretical 1 mg mL^−1; for solubility: culture media DMEM, NB and TSB, aqueous with cosolvent or surfactant or cyclodextrin, kinetic from dmso stock, in the media selected (DMEM, NB, TSB), read-out: Solubility limit. Here is the method:
High‐performance liquid chromatography (HPLC) measurements were performed using an NUCLEODUR C18 Gravity‐SB (3 µm, 250 × 2 mm) column equipped with a precolumn (Machery Nagel, Düren, Germany) in a Shimadzu HPLC system (Kyoto, Japan). The flow rate was set to 0.6 mL min^−1 at 40°C using 80% methanol/20% phosphoric acid (0.5% [v/v] in H2O) as mobile phase. Media samples were 10‐fold diluted in the mobile phase, incubated for 10 min at 40°C and centrifuged at 10,000g for 10 min. 10 μL of filtered (polytetrafluoroethylene, 0.2 µm) samples was injected for analysis. Identification and quantification of isoxanthohumol, xanthohumol, co‐/n‐/adhumulone, co‐/n‐/adlupulone, and co‐/n‐/adisohumulone by a UV‐Detector (314 nm for 0–24 min, and 270 nm for 24.01–45 min) were performed by corresponding standard curves. The preparation of hop compound solutions was carried out analogously for all three media NB, TSB, and DMEM for use in bacterial and avian cell culture. Hop compounds were provided by Hopsteiner (Mainburg, Germany) in the following purities: isoxanthohumol (81.0%), xanthohumol (90.0%), humulone (88.5%), lupulone (74.3%), and isohumulone (91.0%). The hop compounds were dissolved in ethanol to 10 mg mL^−1. From this stock solution, 1:10 dilutions were prepared in the respective medium, resulting in precipitation due to their hydrophobic character. After centrifugation (10,000g, 10 min), the clear supernatant was transferred to a new tube and used for further experiments. […] This is why the actual concentration of the compounds in the aqueous medium was analyzed using HPLC and used for subsequent calculations. Due to the hydrophobic character of hop pure compounds, a complete dissolution in an aqueous medium cannot be assumed. […] To assess the influence of FBS on solubility, DMEM without serum was also tested. For humulone, lupulone, and isohumulone, the three derivatives (co‐/n‐/ad‐) are considered together in this figure and also in the following.

In data set [6] the test system is A-2780 ovarian cancer cell line. On the set-up: method as in Miranda et al. [1999]. To be noted: ref Miranda et al. [1999], cited from earlier work.
The subject of data set [7] is MCF-7 breast cancer cell line. The arrangement: method as in Miranda et al. [1999]. To be noted: ref Miranda et al. [1999], cited from earlier work.
Data set [8] has as its system normal human fibroblasts (BJ cells). The arrangement: method as in Klimek et al. ([2021]). To be noted: ref Klimek et al. ([2021]); cited from earlier work.
The test system of data set [9] is normal murine hepatocytes (AML 12 cell line). On the set-up: method as in Ho et al. [2008]. To be noted: ref Ho et al. [2008]; cited from earlier work.
The mark [10] stands for this setting: read-out: IC50 (antiproliferative effect).

By MIC90 is commonly meant an inhibitory concentration at the 90% level, which refers to growth in some studies and to a panel of isolates in others. For `CC1(C)S[C@@H]2[C@H](NC(=O)[C@H](N)c3ccccc3)C(=O)N2[C@H]1C(=O)O` [ampicillin], the MIC90 in the data set on M. luteus was 2500 µg/mL (≈ 7150 µM).
As to `CO/N=C(\C(=O)N[C@@H]1C(=O)N2C(C(=O)O)=C(CSc3nc(=O)c(=O)[nH]n3C)CS[C@H]12)c1csc(N)n1` [ceftriaxone], the MIC90 with M. luteus was 500 µg/mL (≈ 902 µM).
For orientation: MIC50 means an inhibitory concentration at the 50% level, which refers to growth in some studies and to a panel of isolates in others. The low end stands for greater potency, the high end for weaker potency. For orientation: IC50 means the concentration at which inhibition is half-maximal. Take `CNC(C)C1CCC(N)C(OC2C(N)CC(N)C(OC3OCC(C)(O)C(NC)C3O)C2O)O1` (stereo not drawn) [gentamicin sulfate, reference compound]: the MIC50 in data set [1] was determined as 0.73 ± 0.2 µg/mL; in data set [2], 0.26 ± 0.08 µg/mL. In [3], this compound registered an IC50 at 48 h of 1440 ± 390 µg/mL.
As usually defined, the solubility is the dissolved amount per volume that the medium holds. Consider `CC(C)=CCC1C(=O)C(C(=O)CC(C)C)=C(O)C(O)(CC=C(C)C)C1=O` (stereo not drawn) [humulone], for which the “Selectivity index (SI), quotient of IC50 and MIC50” value in data set [1] is “around 6”. The IC50 in data set [4] is 13.2 to 15.5 µg/mL. In data set [5], the “Solubility in aqueous medium (in words)” value is given as “highest” and the solubility is roughly 1000 µg/mL (≈ 2760 µM).
With `COc1cc(O)c(CC=C(C)C)c2c1C(=O)CC(c1ccc(O)cc1)O2` (stereo not drawn) [isoxanthohumol], the “Times less effective than xanthohumol” value in [6] is on record as 35 times. The “Effect compared with xanthohumol (in words)” value in data set [7] is “comparable effect”. In addition, the “Solubility in aqueous medium (in words)” value in data set [5] is listed as “minimal; also recorded: moderately dissolved; also recorded: limited solubility”.
In the case of `CC(C)=CCC1=C(O)C(C(=O)CC(C)C)=C(O)C(CC=C(C)C)(CC=C(C)C)C1=O` [lupulone], the figures for the MIC50 in data set [1] and in data set [2] were 0.1 ± 0.0029 µg/mL (≈ 0.241 µM) and 1.5 ± 0.48 µg/mL (≈ 3.62 µM), respectively. In addition, the IC50 in data set [4] is 2.4 to 8.1 µg/mL. The solubility in [5] is roughly 1000 µg/mL (≈ 2410 µM). Further, the IC50 at 48 h in data set [3] was 1.5 ± 0.034 µg/mL (≈ 3.62 µM).
Take `[H]/N=C(/N)N[C@H]1[C@H](O)[C@@H](O)[C@H](O[C@@H]2O[C@@H](C)[C@](O)(C=O)[C@H]2O[C@@H]2O[C@@H](CO)[C@H](O)[C@@H](O)[C@@H]2NC)[C@@H](N/C(N)=N\[H])[C@@H]1O` [streptomycin]: in the data set on M. luteus, the MIC90 is 500 µg/mL (≈ 860 µM).
Take `COc1cc(O)c(CC=C(C)C)c(O)c1C(=O)/C=C/c1ccc(O)cc1` [xanthohumol]: the IC50 in data set [8] was 26.56 µg/mL (≈ 74.9 µM); in data set [6] (setting [10]), 0.52 µM; in [7] (setting [10]) it was 13.3 µM; in data set [9], 211 µM. In addition, the “Selectivity index (SI), quotient of IC50 and MIC50” value in data set [1] is given as “around 6”; in data set [2] (IC50 UMNSAH/DF-1 / MIC50 M. luteus), 5.5 ± 0.36. This compound also yielded an MIC50 in data set [2] of 0.95 ± 0.04 µg/mL (≈ 2.68 µM). Moreover, the “Solubility in aqueous medium (in words)” value is “minimal; also recorded: only a small proportion of xanthohumol could be recovered” in data set [5] and “limited solubility” in data set [5] (listed as Xanthohumol).
